Reference: patent US20160022694A1, “A Method of Improving the Efficiency of Beef Production from Bovine Animals” (INTERVET INTERNATIONAL B.V., priority 2013, published 2016)
Marks after values point to notes of the source that are not given here.

Columns and labels:
finishing steers [1] = assay: Secondary (carcass) variables after Zilmax component or continuous feeding; type: in vivo, cattle; settings: for Marbling Score: 400-699 = choice
Description: A multi-center, randomized complete block design was used. Four study sites enrolled 800 to 1000 head of cattle each. Cattle were randomized to 10 blocks of 80 to 100 head based on body weight, then penned in groups of 16 to 20 head per pen. Finishing steers that were visually estimated to be approximately 58 days from finish were used in the studies. Each site enrolled 800 to 1000 head of cattle. Cattle were randomized to 10 blocks of 80 to 100 head and, within block, to treatment group based on body weight. Study pens consisted of 16 to 20 head per pen. A component feeding method was tested in the studies by thoroughly mixing the daily zilpaterol dose in the first feeding of the Type C feed prior to delivery to the animal for Groups 2, 3 and 4. […] The daily component feed amount (i.e., the first feeding each day of the Type C feed) was set at approximately 10 lb of feed dry matter (DM) per head to simulate commercial practice for component feeding. Therefore, all study pens were fed approximately 10 lb of DM per head in the first feeding of the day. Control steers were fed the Type C feed that contained no Zilmax. The component feeding treatment groups were fed the Type C feed that contained 60, 75, or 90 mg/head/day. All cattle in the control and three component feeding treatments were fed the non-medicated Type C complete feed (i.e., without Zilmax®) in a second feeding each day. Steers in the 6.8 g/ton Zilmax® treatment group received the Type C complete feed containing this level of Zilmax® in both feedings each day during the 20-day Zilmax® feeding period. DMI was calculated for the two study periods (start of the acclimation period or Day 0 to the end of the withdrawal period). The following carcass data were collected or calculated: marbling score, USDA quality grade or equivalent, hot carcass weight, ribeye area, backfat thickness (preliminary yield grade and adjusted preliminary yield grade), and USDA yield grade or equivalent. Dressing percent was calculated. Variables continuous in nature were subjected to the analysis described for the primary outcome variables. Outcomes evaluated included: initial body weight, final body weight, weight gain (Day 0 to final date), ADG (acclimation period, initial date to final date), ADG (shrunk, Day 0 to final date and initial date to final date), DMI (acclimation, initial date to final date), as fed intake (Zilmax® period), carcass gain (Day 0 to final date), dressing percent, hot carcass weight, marbling score, fat depth, ribeye area, percent KPH and calculated yield grade. The following carcass data were collected or calculated: marbling score, USDA quality grade or equivalent, hot carcass weight, ribeye area, backfat thickness, calculated yield grade, kidney-pelvic-heart fat percentage, and USDA yield grade or equivalent. The Canadian study site CBGA quality and yield grades were converted to USDA equivalents prior to analysis. Dressing percent was calculated.

finishing steers [2] = assay: Feedlot growth performance study: component feeding vs continuous feeding of Zilmax; type: in vivo, cattle; settings: for Final body weight: 20 days, LS mean
Description: A multi-center, randomized complete block design was used. Four study sites enrolled 800 to 1000 head of cattle each. Cattle were randomized to 10 blocks of 80 to 100 head based on body weight, then penned in groups of 16 to 20 head per pen. Finishing steers that were visually estimated to be approximately 58 days from finish were used in the studies. Each site enrolled 800 to 1000 head of cattle. Cattle were randomized to 10 blocks of 80 to 100 head and, within block, to treatment group based on body weight. Study pens consisted of 16 to 20 head per pen. The study was broken into three periods: acclimation, Zilmax® treatment and withdrawal. Between study sites, the number of acclimation days was variable but the Zilmax feeding period was 20 days at all study sites. The withdrawal period ranged from 3 to 5 days across the sites. More than one start time was allowed to accommodate enrollment of the study animals. If blocks were initiated at different times, blocks may have been acclimated for different lengths of time. The minimum length of the acclimation period was 31 days. All animals were permitted ad libitum feed consumption according to standard study site procedure. Feed delivery occurred twice daily. Daily feed issue was recorded on a per pen basis from the start of the acclimation period and until final weights were measured before shipment for harvest. Feed batching and delivery were documented. A component feeding method was tested in the studies by thoroughly mixing the daily zilpaterol dose in the first feeding of the Type C feed prior to delivery to the animal for Groups 2, 3 and 4. […] The daily component feed amount (i.e., the first feeding each day of the Type C feed) was set at approximately 10 lb of feed dry matter (DM) per head to simulate commercial practice for component feeding. Therefore, all study pens were fed approximately 10 lb of DM per head in the first feeding of the day. Control steers were fed the Type C feed that contained no Zilmax. The component feeding treatment groups were fed the Type C feed that contained 60, 75, or 90 mg/head/day. All cattle in the control and three component feeding treatments were fed the non-medicated Type C complete feed (i.e., without Zilmax®) in a second feeding each day. Steers in the 6.8 g/ton Zilmax® treatment group received the Type C complete feed containing this level of Zilmax® in both feedings each day during the 20-day Zilmax® feeding period. Individual animal weights were measured prior to the start of the Acclimation period for use in randomization of animals to treatment groups and pens. The Acclimation period was used to stabilize feed intake and behavioral aspects of the newly sorted pen groups of cattle prior to feeding Zilmax®. Individual weights were measured and unconsumed feed was removed from the feed bunks and weighed on the day of initiation of Zilmax® feeding. After a 20-day Zilmax® feeding period, unconsumed feed was removed from the feed bunks, weighed, and discarded. All animals in the five treatment groups were fed a non-medicated feed (i.e., without Zilmax®) for a minimum 3 day withdrawal period prior to harvest. Unconsumed feed remaining in the feed bunks was removed and weighed on the day of final body weight measurement. Cattle were handled throughout the study using procedures which were typical of commercial practices. Cattle were exposed to ambient weather conditions during the studies. Feed was not restricted prior to weighing or harvest. The primary variables in this study were average daily body weight gain (ADG) and feed efficiency (FE) calculated for the Zilmax® feeding period of the study (Day 0 through end of withdrawal period) and for the entire study (start of the acclimation period to end of withdrawal period). ADG was calculated as a pen average from the ADG of individual animals within the pen using the equation: ADG=(final body weight−Day 0 body weight)/(number of days between the body weight measurements). […]

[3] = Acclimation to End of Withdrawal (entire study)
[4] = Entire Study (55 to 82 days), component feeding 60 mg/hd/day
[5] = Entire Study (55 to 82 days), component feeding 75 mg/hd/day
[6] = Entire Study (55 to 82 days), component feeding 90 mg/hd/day
[7] = Entire Study (55 to 82 days), continuous 6.8 g/ton
[8] = Zilmax and Withdrawal Period, all treated groups
[9] = Zilmax and Withdrawal Periods (23 to 25 days), component feeding 60 mg/hd/day
[10] = Zilmax and Withdrawal Periods (23 to 25 days), component feeding 75 mg/hd/day
[11] = Zilmax and Withdrawal Periods (23 to 25 days), component feeding 90 mg/hd/day
[12] = Zilmax and Withdrawal Periods (23 to 25 days), continuous 6.8 g/ton

## CC(C)NC1CCn2c(=O)[nH]c3cccc(c32)C1O (centres unmarked) [Zilmax, 4,5,6,7-tetrahydro-7-hydroxy-6-(isopropylamino) imidazo[4,5,1-jk]-[1]benzazepin-2(1H)-one]
Finishing steers [1]; P>0.19
  Backfat thickness, among the treatment groups: no significant differences
  Kidney-pelvic-heart fat percentage, among the treatment groups: no significant differences
  USDA quality grade, among the treatment groups: no significant differences
Finishing steers [1]; all treated groups
  Calculated yield grade, Zilmax treated groups compared to the control group: significantly lower
  Dressing percentage, Zilmax treated groups compared to the control group: significantly higher
  Hot carcass weight, Zilmax treated groups compared to the control group: significantly higher
  Marbling score, Zilmax treated groups compared to the control group: significantly lower
  Rib eye area, Zilmax treated groups compared to the control group: significantly higher
  USDA yield grade score, Zilmax treated groups compared to the control group: significantly lower
Finishing steers [1]; bovine, in vivo
  Calculated yield grade, component feeding groups vs continuous feeding group: no differences
  Dressing percentage, component feeding groups vs continuous feeding group: no differences
  Hot carcass weight, component feeding groups vs continuous feeding group: no differences
  Marbling score, component feeding groups vs continuous feeding group: no differences
  Rib eye area, component feeding groups vs continuous feeding group: no differences
  USDA yield grade score, component feeding groups vs continuous feeding group: no differences
Finishing steers [1]; component feeding 60 mg/hd/day
  Backfat Thickness: 0.49 inches
  Calculated Yield Grade: 2.81*
  Dressing % (using final body weight shrunk 4%): 63.89* %
  Hot Carcass Weight: 904* lb/head
  Kidney-Pelvic-Heart fat: 2.27%
  Ribeye Area: 15.14* sq. inches
  USDA Yield Grade: 2.19*
  Marbling Score: 453*
Finishing steers [1]; component feeding 75 mg/hd/day
  Backfat Thickness: 0.48 inches
  Calculated Yield Grade: 2.82*
  Dressing % (using final body weight shrunk 4%): 64.00* %
  Hot Carcass Weight: 902* lb/head
  Kidney-Pelvic-Heart fat: 2.26%
  Ribeye Area: 15.07* sq. inches
  USDA Yield Grade: 2.19*
  Marbling Score: 460*
Finishing steers [1]; component feeding 90 mg/hd/day
  Backfat Thickness: 0.49 inches
  Calculated Yield Grade: 2.79*
  Dressing % (using final body weight shrunk 4%): 64.06* %
  Hot Carcass Weight: 905* lb/head
  Kidney-Pelvic-Heart fat: 2.26%
  Ribeye Area: 15.20* sq. inches
  USDA Yield Grade: 2.18*
  Marbling Score: 456*
Finishing steers [1]; continuous 6.8 g/ton
  Backfat Thickness: 0.49 inches
  Calculated Yield Grade: 2.83*
  Dressing % (using final body weight shrunk 4%): 64.08* %
  Hot Carcass Weight: 908* lb/head
  Kidney-Pelvic-Heart fat: 2.27%
  Ribeye Area: 15.14* sq. inches
  USDA Yield Grade: 2.19*
  Marbling Score: 457*
Finishing steers [2]; [3]
  ADG, component feeding groups vs continuous feeding group: No differences
  ADG, treated groups compared to the control group: significantly higher
  FE, component feeding groups vs continuous feeding group: No differences
  FE, treated groups compared to the control group: significantly lower
Finishing steers [2]; Acclimation to End of Withdrawal (entire study), P>0.51
  DMI, among the treatment groups: No differences
Finishing steers [2]; [4]
  ADG: 4.14* lb/head/day
  DMI: 22.71 lb/head/day
  FE (Feed / Gain): 5.64*
Finishing steers [2]; [5]
  ADG: 4.12* lb/head/day
  DMI: 22.75 lb/head/day
  FE (Feed / Gain): 5.65*
Finishing steers [2]; [6]
  ADG: 4.13* lb/head/day
  DMI: 22.65 lb/head/day
  FE (Feed / Gain): 5.62*
Finishing steers [2]; [7]
  ADG: 4.19* lb/head/day
  DMI: 22.93 lb/head/day
  FE (Feed / Gain): 5.64*
Finishing steers [2]; Zilmax and Withdrawal Period
  ADG, component feeding groups vs continuous feeding group: No differences
  DMI, component feeding groups compared to the control group: significantly lower
  DMI, continuous feeding group vs control group: no significant difference
  FE, component feeding groups vs continuous feeding group: No differences
Finishing steers [2]; [8]
  ADG, treated groups compared to the control group: significantly higher
  FE, treated groups compared to the control group: significantly lower
Finishing steers [2]; [9]
  ADG: 4.13*^(c) lb/head/day
  DMI: 22.57* lb/head/day
  FE (Feed / Gain): 5.89*
Finishing steers [2]; [10]
  ADG: 3.99* lb/head/day
  DMI: 22.70* lb/head/day
  FE (Feed / Gain): 5.99*
Finishing steers [2]; [11]
  ADG: 3.97* lb/head/day
  DMI: 22.39* lb/head/day
  FE (Feed / Gain): 6.10*
Finishing steers [2]; [12]
  ADG: 4.23* lb/head/day
  DMI: 22.87 lb/head/day
  FE (Feed / Gain): 5.96*
Finishing steers [2]; component feeding 60 mg/hd/day
  Final body weight: 1463 lb/head
Finishing steers [2]; component feeding 75 mg/hd/day
  Final body weight: 1459 lb/head
Finishing steers [2]; component feeding 90 mg/hd/day
  Final body weight: 1461 lb/head
Finishing steers [2]; fed continuously 6.8 g/ton (90% DMB)
  Final body weight: 1467 lb/head
